{
  "source": "patent US20250057837A1",
  "about": "“Methods for Treating HCV” (priority 2015, published 2025)",
  "key": {"[1]": {"system": "GT3a NS3 protease replicon Q168R co-selected with Y56H", "assay": "Resistant colony selection, replicon containing GT3a NS3 protease (Q168R+Y56H)", "format": "cell-based, hepatitis C virus"}, "[2]": {"format": "in vivo, human", "settings": "for impact of HCV genotype and RBV coadministration on exposures: GT1-, GT2- or GT3-infected subjects", "excerpt": "Blood samples for pharmacokinetic analysis were collected throughout the study treatment period."}, "[3]": {"system": "resistance-associated variants in GT 1a (H77) replicon", "assay": "Activity against resistance-associated variants in GT 1a replicon", "format": "cell-based, hepatitis C virus"}, "[4]": {"system": "resistance-associated variants in GT 1b (Con-1) replicon", "assay": "Activity against resistance-associated variants in GT 1b replicon", "format": "cell-based, hepatitis C virus"}, "[5]": {"system": "GT1b replicon NS3 A156V variant", "assay": "Resistant colony selection, GT1b subgenomic replicon cells", "format": "cell-based, hepatitis C virus", "settings": "A156V in GT1b"}, "[6]": {"system": "GT3a NS3 protease replicon A156G variant", "assay": "Resistant colony selection, replicon containing GT3a NS3 protease (A156G)", "format": "cell-based, hepatitis C virus", "settings": "A156G alone"}, "[7]": {"system": "GT1a replicon NS3 A156T variant", "assay": "Resistant colony selection, GT1a subgenomic replicon cells", "format": "cell-based, hepatitis C virus", "settings": "A156T in GT1a"}, "[8]": {"settings": "human, in vivo"}, "[9]": {"assay": "Phase 1 drug-drug interaction with tacrolimus in healthy subjects", "settings": "coadministered with tacrolimus 1 mg"}, "[10]": {"assay": "Phase 1 single and multiple ascending dose and food effect study of Compound 2 in healthy subjects", "description": "This was a blinded, randomized, placebo-controlled Phase 1 study. […] Safety and tolerability were assessed throughout the study."}, "[11]": {"assay": "Phase 1 drug-drug interaction with cyclosporine in healthy subjects", "settings": "coadministered with cyclosporine 100 mg"}},
  "data": [
    {"smiles": "CC(C)(C)[C@@H]1NC(=O)O[C@@H]2CCC[C@H]2OC/C=C/C(F)(F)c2nc3ccccc3nc2O[C@@H]2C[C@@H](C(=O)N[C@]3(C(=O)NS(=O)(=O)C4(C)CC4)C[C@H]3C(F)F)N(C2)C1=O", "note": "[Compound 1]", "values": [
      {"measurement": "loss in susceptibility conferred by variant", "setting": "[1]", "value": 1100, "unit": "fold"},
      {"measurement": "impact of HCV genotype and RBV coadministration on exposures", "setting": "[2]", "value": "no impact"},
      {"measurement": "impact of Compound 2 on Compound 1 exposures", "setting": "[2]; coadministration", "value": "minimal impact"},
      {"measurement": "inhibitory activity against NS3 resistance-associated variants", "setting": "[3]; V36M, R155K, D168A and D168V in GT 1a (H77)", "value": "nearly equivalent to that against wild-type HCV replicon"},
      {"measurement": "activity against variants at NS3 amino acid positions 155 and 168", "setting": "[3]; common GT1a variants conferring resistance to other HCV protease inhibitors", "value": "retained its activity"},
      {"measurement": "activity against NS5A inhibitor and NS5B inhibitor resistance-associated variants", "setting": "[3]; e.g. M28T, M28V, Q30D, Q30R, Y93C, Y93H, Y93N, L31V+Y93H, C316Y, M414T, Y448C, Y448H, S556G and S559G in GT1a", "value": "potent activity"},
      {"measurement": "inhibitory activity against NS3 resistance-associated variants", "setting": "[4]; T54A, R155K, D168V and V170A in GT 1b (Con-1)", "value": "nearly equivalent to that against wild-type HCV replicon"},
      {"measurement": "activity against variants at NS3 amino acid positions 155 and 168", "setting": "[4]; common GT1b variants conferring resistance to other HCV protease inhibitors", "value": "retained its activity"},
      {"measurement": "activity against NS5A inhibitor and NS5B inhibitor resistance-associated variants", "setting": "[4]; e.g. L28T, Y93H, S282T, C316Y, Y448H and S556G in GT 1b", "value": "potent activity"},
      {"measurement": "reduced susceptibility conferred by variant", "setting": "[5]", "value": 1800, "unit": "fold"},
      {"measurement": "loss in susceptibility conferred by variant", "setting": "[6]", "value": 1500, "unit": "fold"},
      {"measurement": "reduced susceptibility conferred by variant", "setting": "[7]", "value": 1400, "unit": "fold"}
    ]},
    {"smiles": "C=CCN1CC[C@]23c4c5ccc(O)c4O[C@H]2C(=O)CC[C@@]3(O)[C@H]1C5", "note": "[naloxone]", "values": [
      {"measurement": "dose-normalized Cmax and AUCt, change", "setting": "[8]", "value": "≤ 12", "unit": "%"}
    ]},
    {"smiles": "COC(=O)N[C@H](C(=O)N1CCC[C@H]1c1nc2cc([C@H]3CC[C@H](c4cc5nc([C@@H]6CCCN6C(=O)[C@@H](NC(=O)OC)[C@@H](C)OC)[nH]c5cc4F)N3c3cc(F)c(N4CCC(c5ccc(F)cc5)CC4)c(F)c3)c(F)cc2[nH]1)[C@@H](C)OC", "note": "[Compound 2]", "values": [
      {"measurement": "impact of HCV genotype and RBV coadministration on exposures", "setting": "[2]", "value": "no impact"},
      {"measurement": "steady-state Cmax, AUC24, and C24 in plasma, change", "setting": "[9]", "value": "≤ 2", "unit": "%"},
      {"measurement": "severity of adverse events", "setting": "[10]; SAD 1.5-600 mg, MAD 30-600 mg QD 10 days", "value": "mild"},
      {"measurement": "maximum tolerated dose", "setting": "[10]; SAD and MAD portions", "value": "not reached"},
      {"measurement": "steady-state AUC24 in plasma, increase", "setting": "[11]", "value": 22, "unit": "%"},
      {"measurement": "steady-state C24 in plasma, increase", "setting": "[11]", "value": 26, "unit": "%"},
      {"measurement": "steady-state Cmax in plasma, increase", "setting": "[11]", "value": 11, "unit": "%"}
    ]}
  ]
}
